Legend:
HGK = HGK (Homo sapiens, UniProt O95819); test: HGK (MAP4K4) biochemical assay (AlphaScreen); conditions: under the test conditions employed; read-out: IC50 toward kinase HGK
Procedure: Substrate was 10 nM biotin-ERM (T567/T564/T558, Cell Signaling, Inc., cat#1344). MAP4K4 kinase was at 0.5 ng per sample. After incubation of the kinase reaction for 40 min at room temperature, 5 μl of donor beads and protein A acceptor beads (Perkin Elmer Life Science, cat#67606017) at final concentration 1 μg/ml in stop buffer (20 mM Tris, pH 7.4, 200 mM Nacl, 100 mM EDTA, 0.03% BSA) was added, along with Phospho-ERM Antibody (T567/T564/T558, Cell Signaling, Inc., cat#3141) at 1:1000 dilution. […] Phosphorylated substrate results in binding of the antibody which binds to protein A acceptor bead and association of the donor and acceptor beads is such that the signal correlates with kinase activity.

Fms = target: T1, Fms (Homo sapiens, UniProt P07333); test: Fms biochemical assay (AlphaScreen or 33P-ATP); conditions: under the test conditions employed; read-out: IC50 toward kinase Fms
T1 construct: purchased Upstate Biotech 14-551
Text: Each sample was at 5% DMSO.

TrkA = target: T2, TrkA (Homo sapiens, UniProt P04629); test: TrkA biochemical assay (AlphaScreen); conditions: under the test conditions employed; read-out: IC50 toward kinase TrkA
T2 construct: purchased Upstate Biotech 14-571
Procedure: Compounds tested were dissolved in DMSO (1 μL) and added to a white 384-well plate (Costar #3705). […] Each sample was at 5% DMSO. The plate was then incubated for 40 minutes at room temperature.

Kit = target: T3, Kit (Homo sapiens, UniProt P10721); test: c-kit biochemical assay (AlphaScreen or 33P-ATP); conditions: under the test conditions employed; read-out: IC50 toward kinase Kit
T3 construct: P1332.N6 BI PTP KIT M552-K948-X COD; made in house; host or cells: E. coli BL21(DE3)RIL, co-expressed with PTP1B
Procedure: C-kit kinase was at 1 ng per sample.
The c-kit enzyme used in the above assay was either obtained from Cell Signaling Technology (Cat. #7754) or was prepared as follows: A plasmid encoding kit (DNA and encoded protein sequences shown below) was engineered using common polymerase chain reaction (PCR) methods. Complementary DNA cloned from various human tissues were purchased from Invitrogen, and these were used as substrates in the PCR reactions. Specific custom synthetic oligonucleotide primers were designed to initiate the PCR product, and also to provide the appropriate restriction enzyme cleavage sites for ligation with the plasmids. The entire sequence encoding the enzyme was made through a gene synthesis procedure, using custom synthetic oligonucleotides covering the entire coding sequence (Invitrogen, see below).

B-Raf V600E = B-Raf V600E (Homo sapiens, UniProt P15056, V600E); test: B-Raf V600E kinase activity assay; format: biochemical; conditions: under the test conditions employed; read-out: IC50 toward kinase B-Raf V600E

Measured: IC50

Sequence of HGK (O95819 whole entry): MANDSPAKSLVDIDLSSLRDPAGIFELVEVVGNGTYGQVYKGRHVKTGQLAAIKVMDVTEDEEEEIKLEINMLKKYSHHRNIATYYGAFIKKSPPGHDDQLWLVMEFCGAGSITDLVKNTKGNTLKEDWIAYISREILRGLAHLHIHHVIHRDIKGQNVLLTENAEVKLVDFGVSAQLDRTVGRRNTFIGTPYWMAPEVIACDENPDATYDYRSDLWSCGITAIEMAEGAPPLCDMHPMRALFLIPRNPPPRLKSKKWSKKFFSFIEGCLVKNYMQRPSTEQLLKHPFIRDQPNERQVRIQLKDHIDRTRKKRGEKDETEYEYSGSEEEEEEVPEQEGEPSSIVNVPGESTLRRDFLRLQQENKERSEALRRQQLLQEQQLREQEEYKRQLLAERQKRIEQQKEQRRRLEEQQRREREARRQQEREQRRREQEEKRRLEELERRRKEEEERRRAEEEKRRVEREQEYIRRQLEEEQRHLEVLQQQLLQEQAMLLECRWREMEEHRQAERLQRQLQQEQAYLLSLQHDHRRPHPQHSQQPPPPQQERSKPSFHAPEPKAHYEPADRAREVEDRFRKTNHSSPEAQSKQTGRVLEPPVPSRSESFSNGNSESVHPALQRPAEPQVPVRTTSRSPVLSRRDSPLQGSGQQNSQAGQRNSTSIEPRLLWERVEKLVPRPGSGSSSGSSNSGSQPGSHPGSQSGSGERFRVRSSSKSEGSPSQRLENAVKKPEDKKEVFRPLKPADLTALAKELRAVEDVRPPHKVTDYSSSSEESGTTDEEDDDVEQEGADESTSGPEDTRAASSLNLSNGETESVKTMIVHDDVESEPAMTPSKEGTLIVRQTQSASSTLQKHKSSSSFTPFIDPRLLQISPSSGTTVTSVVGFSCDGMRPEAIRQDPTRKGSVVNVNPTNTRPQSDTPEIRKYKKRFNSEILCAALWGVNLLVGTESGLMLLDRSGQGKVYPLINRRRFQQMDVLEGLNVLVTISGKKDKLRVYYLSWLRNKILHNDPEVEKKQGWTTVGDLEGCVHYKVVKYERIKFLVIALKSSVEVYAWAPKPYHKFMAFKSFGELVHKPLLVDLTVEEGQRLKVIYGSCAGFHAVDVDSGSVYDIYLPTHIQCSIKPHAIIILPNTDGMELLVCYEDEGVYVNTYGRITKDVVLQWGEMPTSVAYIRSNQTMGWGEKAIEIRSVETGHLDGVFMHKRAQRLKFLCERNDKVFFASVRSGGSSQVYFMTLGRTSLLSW
T2 sequence (P04629 33-796): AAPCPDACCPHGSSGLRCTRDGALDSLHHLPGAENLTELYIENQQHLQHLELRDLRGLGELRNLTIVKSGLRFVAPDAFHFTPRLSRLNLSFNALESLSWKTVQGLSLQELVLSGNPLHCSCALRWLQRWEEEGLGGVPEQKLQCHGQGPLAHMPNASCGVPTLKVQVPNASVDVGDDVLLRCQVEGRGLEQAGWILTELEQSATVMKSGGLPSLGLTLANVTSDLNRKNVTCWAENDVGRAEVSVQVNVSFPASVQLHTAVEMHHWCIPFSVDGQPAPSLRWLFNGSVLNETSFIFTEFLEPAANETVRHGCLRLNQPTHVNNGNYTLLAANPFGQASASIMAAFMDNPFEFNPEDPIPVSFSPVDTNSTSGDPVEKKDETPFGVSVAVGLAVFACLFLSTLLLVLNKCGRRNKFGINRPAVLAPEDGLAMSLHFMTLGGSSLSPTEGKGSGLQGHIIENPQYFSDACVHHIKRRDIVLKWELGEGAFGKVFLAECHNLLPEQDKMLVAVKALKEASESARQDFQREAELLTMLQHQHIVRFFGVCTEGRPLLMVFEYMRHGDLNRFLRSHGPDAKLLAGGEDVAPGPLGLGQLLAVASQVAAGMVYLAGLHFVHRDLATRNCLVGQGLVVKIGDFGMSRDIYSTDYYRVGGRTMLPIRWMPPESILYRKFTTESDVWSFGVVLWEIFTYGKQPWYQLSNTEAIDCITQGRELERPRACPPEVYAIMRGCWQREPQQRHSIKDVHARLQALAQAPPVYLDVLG
T3 sequence (P10721 552-948): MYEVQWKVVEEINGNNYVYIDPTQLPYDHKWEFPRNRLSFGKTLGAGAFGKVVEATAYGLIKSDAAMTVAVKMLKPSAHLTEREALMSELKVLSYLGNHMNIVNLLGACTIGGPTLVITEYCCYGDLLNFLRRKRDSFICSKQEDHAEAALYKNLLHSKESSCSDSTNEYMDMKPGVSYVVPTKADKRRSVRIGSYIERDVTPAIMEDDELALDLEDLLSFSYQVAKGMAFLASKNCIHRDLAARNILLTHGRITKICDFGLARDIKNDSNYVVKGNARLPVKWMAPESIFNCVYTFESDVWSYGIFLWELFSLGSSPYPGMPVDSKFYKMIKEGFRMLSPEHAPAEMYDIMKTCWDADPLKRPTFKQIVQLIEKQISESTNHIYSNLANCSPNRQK
T1 sequence (P07333 20-972): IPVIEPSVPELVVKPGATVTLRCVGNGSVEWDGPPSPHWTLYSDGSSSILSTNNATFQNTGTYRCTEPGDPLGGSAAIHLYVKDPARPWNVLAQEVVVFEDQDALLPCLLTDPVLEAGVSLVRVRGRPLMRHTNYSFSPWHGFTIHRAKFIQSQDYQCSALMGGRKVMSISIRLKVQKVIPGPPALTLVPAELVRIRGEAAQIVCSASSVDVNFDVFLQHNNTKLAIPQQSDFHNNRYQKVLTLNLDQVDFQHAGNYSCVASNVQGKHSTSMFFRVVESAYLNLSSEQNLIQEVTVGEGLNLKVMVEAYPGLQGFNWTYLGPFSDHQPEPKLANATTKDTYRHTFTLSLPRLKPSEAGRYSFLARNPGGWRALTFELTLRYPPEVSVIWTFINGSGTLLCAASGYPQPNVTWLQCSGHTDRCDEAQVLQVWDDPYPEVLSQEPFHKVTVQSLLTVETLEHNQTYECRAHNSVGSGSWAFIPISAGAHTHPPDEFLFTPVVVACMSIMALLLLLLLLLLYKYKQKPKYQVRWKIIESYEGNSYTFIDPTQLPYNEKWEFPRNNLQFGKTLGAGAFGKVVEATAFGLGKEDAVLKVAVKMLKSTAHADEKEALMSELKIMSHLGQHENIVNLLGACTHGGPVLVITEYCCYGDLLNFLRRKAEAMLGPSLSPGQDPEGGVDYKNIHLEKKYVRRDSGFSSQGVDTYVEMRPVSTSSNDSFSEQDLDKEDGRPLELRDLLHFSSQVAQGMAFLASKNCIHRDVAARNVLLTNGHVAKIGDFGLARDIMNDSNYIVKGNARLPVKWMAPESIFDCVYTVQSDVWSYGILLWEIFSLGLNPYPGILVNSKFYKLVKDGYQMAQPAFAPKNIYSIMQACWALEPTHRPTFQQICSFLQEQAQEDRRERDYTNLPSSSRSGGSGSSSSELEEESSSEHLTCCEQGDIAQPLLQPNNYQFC
Sequence of B-Raf V600E (P15056 whole entry V600E): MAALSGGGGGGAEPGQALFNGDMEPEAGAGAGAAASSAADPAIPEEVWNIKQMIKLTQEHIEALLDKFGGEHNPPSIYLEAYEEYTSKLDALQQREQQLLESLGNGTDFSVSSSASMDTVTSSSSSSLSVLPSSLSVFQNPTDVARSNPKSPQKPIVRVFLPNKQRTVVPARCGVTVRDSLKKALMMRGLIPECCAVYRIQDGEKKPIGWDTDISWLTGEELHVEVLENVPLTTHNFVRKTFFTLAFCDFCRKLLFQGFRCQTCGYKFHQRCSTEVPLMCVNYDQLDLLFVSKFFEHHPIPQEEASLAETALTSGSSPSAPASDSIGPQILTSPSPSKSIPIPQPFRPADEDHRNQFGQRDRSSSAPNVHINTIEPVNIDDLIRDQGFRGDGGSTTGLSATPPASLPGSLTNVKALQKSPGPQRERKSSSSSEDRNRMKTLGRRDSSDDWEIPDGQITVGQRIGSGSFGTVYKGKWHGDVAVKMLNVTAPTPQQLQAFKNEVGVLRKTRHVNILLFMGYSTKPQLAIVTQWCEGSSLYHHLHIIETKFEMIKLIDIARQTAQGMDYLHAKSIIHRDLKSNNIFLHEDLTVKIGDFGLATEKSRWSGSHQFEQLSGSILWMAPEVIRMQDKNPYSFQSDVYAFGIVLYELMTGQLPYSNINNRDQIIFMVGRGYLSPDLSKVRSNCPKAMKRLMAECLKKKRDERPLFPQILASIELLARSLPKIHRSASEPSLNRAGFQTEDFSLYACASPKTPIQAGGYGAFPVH

COC(=O)c1cnc2[nH]cc(Cc3cc(OC)c(OCc4nc5ccccc5[nH]4)cc3F)c2c1 [P-2174, 3-[4-(1H-Benzimidazol-2-ylmethoxy)-2-fluoro-5-methoxy-benzyl]-1H-pyrrolo[2,3-b]pyridine-5-carboxylic acid methyl ester]
not listed: B-Raf V600E
≤ 10 µM: all other assays above

COc1cc(Cc2c[nH]c3ncc(C#N)cc23)c(F)cc1OCc1nc2ccccc2[nH]1 [P-2171, 3-[4-(1H-Benzoimidazol-2-ylmethoxy)-2-fluoro-5-methoxy-benzyl]-1H-pyrrolo[2,3-b]pyridine-5-carbonitrile]
≤ 10 µM: HGK | Fms | TrkA

Clc1ccc(COc2ccc(Cc3c[nH]c4ncccc34)c(Cl)c2)cc1 [P-1471, 3-[2-Chloro-4-(4-chloro-benzyloxy)-benzyl]-1H-pyrrolo[2,3-b]pyridine]
≤ 10 µM: Fms | B-Raf V600E | Kit

COc1cc(Cc2c[nH]c3ncc(Cl)cc23)c(F)cc1OCCc1nc2ccccc2[nH]1 [P-2180, 2-{2-[4-(5-Chloro-1H-pyrrolo[2,3-b]pyridin-3-ylmethyl)-5-fluoro-2-methoxy-phenoxy]-ethyl}-1H-benzoimidazole]
not listed: B-Raf V600E
≤ 10 µM: all other assays above

COc1cc(Cc2c[nH]c3ncc(Cl)cc23)c(F)cc1OCc1nc2ccccc2n1C [P-2106, 2-[4-(5-Chloro-1H-pyrrolo[2,3-b]pyridin-3-ylmethyl)-5-fluoro-2-methoxy-phenoxymethyl]-1-methyl-1H-benzoimidazole]
not listed: B-Raf V600E
≤ 10 µM: all other assays above

COc1cc(Cc2c[nH]c3ncc(C)cc23)c(F)cc1OCc1nc2cc(Cl)ccc2[nH]1 [P-2184, 5-Chloro-2-[5-fluoro-2-methoxy-4-(5-methyl-1H-pyrrolo[2,3-b]pyridin-3-ylmethyl)-phenoxymethyl]-1H-benzoimidazole]
≤ 10 µM: HGK | Fms | Kit

COc1cc(Cc2c[nH]c3ncccc23)c(F)cc1OCc1nc2ccc(Cl)cc2[nH]1 [P-2112, 6-Chloro-2-[5-fluoro-2-methoxy-4-(1H-pyrrolo[2,3-b]pyridin-3-ylmethyl)-phenoxymethyl]-1H-benzoimidazole]
not listed: B-Raf V600E
≤ 10 µM: all other assays above

COc1cc(Cc2c[nH]c3ncccc23)c(Cl)cc1OCc1nc2ccccc2[nH]1 [P-2103, 2-[5-Chloro-2-methoxy-4-(1H-pyrrolo[2,3-b]pyridin-3-ylmethyl)-phenoxymethyl]-1H-benzoimidazole]
≤ 10 µM: HGK | Fms | TrkA

FC(F)(F)c1ccc(COc2ccc(Cc3c[nH]c4ncccc34)cc2C(F)(F)F)cc1 [P-1797, 3-[3-Trifluoromethyl-4-(4-trifluoromethyl-benzyloxy)-benzyl]-1H-pyrrolo[2,3-b]pyridine]
≤ 10 µM: B-Raf V600E

COc1cc(Cc2c[nH]c3ncc(Cl)cc23)c(F)cc1OCc1nc2cc(Cl)ccc2[nH]1 [P-2111, 6-Chloro-2-[4-(5-chloro-1H-pyrrolo[2,3-b]pyridin-3-ylmethyl)-5-fluoro-2-methoxy-phenoxymethyl]-1H-benzoimidazole]
not listed: B-Raf V600E
≤ 10 µM: all other assays above

COc1cc(C(=O)c2c[nH]c3ncccc23)ccc1OCc1ccc(Cl)cc1 [P-1698, [4-(4-Chloro-benzyloxy)-3-methoxy-phenyl]-(1H-pyrrolo[2,3-b]pyridin-3-yl)-methanone]
≤ 10 µM: B-Raf V600E

COc1cc(Cc2c[nH]c3ncc(Cl)cc23)c(F)cc1OCc1nc2cc(Cl)c(Cl)cc2[nH]1 [P-2172, 5,6-Dichloro-2-[4-(5-chloro-1H-pyrrolo[2,3-b]pyridin-3-ylmethyl)-5-fluoro-2-methoxy-phenoxymethyl]-1H-benzoimidazole]
not listed: B-Raf V600E
≤ 10 µM: all other assays above

Fc1cc(Cc2c[nH]c3ncc(Cl)cc23)c(Cl)cc1OCc1nc2ccccc2[nH]1 [P-2099, 2-[5-Chloro-4-(5-chloro-1H-pyrrolo[2,3-b]pyridin-3-ylmethyl)-2-fluoro-phenoxymethyl]-1H-benzoimidazole]
≤ 10 µM: HGK | Fms | TrkA

COc1cc(Cc2c[nH]c3ncccc23)ccc1OCc1c(Cl)cccc1Cl [P-1579, 3-[4-(2,6-Dichloro-benzyloxy)-3-methoxy-benzyl]-1H-pyrrolo[2,3-b]pyridine]
≤ 10 µM: B-Raf V600E

COc1cc(Cc2c[nH]c3ncc(C(=O)O)cc23)c(F)cc1OCc1nc2ccccc2[nH]1 [P-2175, 3-[4-(1H-Benzoimidazol-2-ylmethoxy)-2-fluoro-5-methoxy-benzyl]-1H-pyrrolo[2,3-b]pyridine-5-carboxylic acid]
≤ 10 µM: HGK | Fms | TrkA

COc1cc(Cc2c[nH]c3ncc(F)cc23)c(F)cc1OCc1nc2ccccc2[nH]1 [P-2115, 2-[5-Fluoro-4-(5-fluoro-1H-pyrrolo[2,3-b]pyridin-3-ylmethyl)-2-methoxy-phenoxymethyl]-1H-benzoimidazole]
≤ 10 µM: HGK | Fms | TrkA

COc1cc(Cc2c[nH]c3ncc(Cl)cc23)c(Cl)cc1OCc1nc2ccccc2[nH]1 [P-2104, 2-[5-Chloro-4-(5-chloro-1H-pyrrolo[2,3-b]pyridin-3-ylmethyl)-2-methoxy-phenoxymethyl]-1H-benzoimidazole]
≤ 10 µM: HGK | Fms | TrkA

COc1cnc2[nH]cc(Cc3cc(Cl)c(OCc4nc5ccccc5[nH]4)cc3F)c2c1 [P-2116, 2-[2-Chloro-5-fluoro-4-(5-methoxy-1H-pyrrolo[2,3-b]pyridin-3-ylmethyl)-phenoxymethyl]-1H-benzoimidazole]
≤ 10 µM: HGK | Fms | TrkA

COc1cc(Cc2c[nH]c3ncc(Cl)cc23)c(F)cc1OC(C)c1nc2ccccc2[nH]1 (stereo not drawn) [P-2110, 2-{1-[4-(5-Chloro-1H-pyrrolo[2,3-b]pyridin-3-ylmethyl)-5-fluoro-2-methoxy-phenoxy]-ethyl}-1H-benzoimidazole]
not listed: B-Raf V600E
≤ 10 µM: all other assays above

COc1ccc2[nH]c(COc3cc(F)c(Cc4c[nH]c5ncc(Cl)cc45)cc3OC)nc2c1 [P-2182, 2-[4-(5-Chloro-1H-pyrrolo[2,3-b]pyridin-3-ylmethyl)-5-fluoro-2-methoxy-phenoxymethyl]-5-methoxy-1H-benzoimidazole]
≤ 10 µM: HGK | Fms | TrkA

COc1cc(Cc2c[nH]c3ncccc23)ccc1OCc1c(F)cc(F)cc1F [P-1578, 3-[3-Methoxy-4-(2,4,6-trifluoro-benzyloxy)-benzyl]-1H-pyrrolo[2,3-b]pyridine]
≤ 10 µM: B-Raf V600E | Kit

Fc1cc(OCc2nc3ccccc3[nH]2)cc(F)c1Cc1c[nH]c2ncccc12 [P-2102, 2-[3,5-Difluoro-4-(1H-pyrrolo[2,3-b]pyridin-3-ylmethyl)-phenoxymethyl]-1H-benzoimidazole]
≤ 10 µM: HGK | Fms

COc1cc(Cc2c[nH]c3ncc(Cl)cc23)c(F)cc1OCc1nc2cc(C(F)(F)F)ccc2[nH]1 [P-2178, 2-[4-(5-Chloro-1H-pyrrolo[2,3-b]pyridin-3-ylmethyl)-5-fluoro-2-methoxy-phenoxymethyl]-5-trifluoromethyl-1H-benzoimidazole]
not listed: B-Raf V600E
≤ 10 µM: all other assays above
